Test results published in US5508311A, “Aliphatic propargylamines as selective MAO-B inhibitors and as neuroprotective agents” (University of Saskatchewan, priority 1993, dated 1996).
Structures can show the parent of a compound that is named as a salt. Where two headings read alike, the source gives them in different places.

What was measured:
MAO-A [1] = biological target: T1, MAO-A (Rattus norvegicus, UniProt P21396); assay: biochemical; assay type: biochemical; conditions: substrate 5-HT (5 × 10^-4 M); rat liver MAO, in vitro; average of at least 3 independent experiments
T1 sequence (P21396 1-526): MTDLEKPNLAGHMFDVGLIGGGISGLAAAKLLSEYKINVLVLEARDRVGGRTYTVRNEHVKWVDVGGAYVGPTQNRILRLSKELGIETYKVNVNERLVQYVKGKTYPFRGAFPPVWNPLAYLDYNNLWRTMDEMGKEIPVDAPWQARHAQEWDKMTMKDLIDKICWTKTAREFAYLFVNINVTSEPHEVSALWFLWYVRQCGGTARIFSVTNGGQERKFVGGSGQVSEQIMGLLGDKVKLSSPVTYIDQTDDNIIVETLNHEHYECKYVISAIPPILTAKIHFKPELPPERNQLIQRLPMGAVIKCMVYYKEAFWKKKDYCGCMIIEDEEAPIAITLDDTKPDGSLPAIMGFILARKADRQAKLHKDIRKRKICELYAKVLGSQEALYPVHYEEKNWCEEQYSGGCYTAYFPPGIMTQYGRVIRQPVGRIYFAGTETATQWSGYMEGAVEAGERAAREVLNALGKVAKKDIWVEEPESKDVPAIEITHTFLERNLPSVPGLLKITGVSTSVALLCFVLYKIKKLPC
Procedure: (§1) The aliphatic propargylamine inhibitors (from 1×10^-10 M to 1×10^-4 M) were preincubated with the MAO for 20 min. at ambient room temperature and then the residual enzyme activities were determined by addition of the substrates, followed by further incubation at 37° C. for 30 min. The enzymatic reactions were terminated by the addition of citric acid and the aldehyde products were extracted with toluene: ethyl acetate (1:1, v/v) and the radio-activities assessed in a scintillation counter.

MAO-B [2] = biological target: T2, MAO-B (Rattus norvegicus, UniProt P19643); assay: biochemical; assay type: biochemical; conditions: for IC50: read-out: PE IC50
T2 sequence (P19643 1-520): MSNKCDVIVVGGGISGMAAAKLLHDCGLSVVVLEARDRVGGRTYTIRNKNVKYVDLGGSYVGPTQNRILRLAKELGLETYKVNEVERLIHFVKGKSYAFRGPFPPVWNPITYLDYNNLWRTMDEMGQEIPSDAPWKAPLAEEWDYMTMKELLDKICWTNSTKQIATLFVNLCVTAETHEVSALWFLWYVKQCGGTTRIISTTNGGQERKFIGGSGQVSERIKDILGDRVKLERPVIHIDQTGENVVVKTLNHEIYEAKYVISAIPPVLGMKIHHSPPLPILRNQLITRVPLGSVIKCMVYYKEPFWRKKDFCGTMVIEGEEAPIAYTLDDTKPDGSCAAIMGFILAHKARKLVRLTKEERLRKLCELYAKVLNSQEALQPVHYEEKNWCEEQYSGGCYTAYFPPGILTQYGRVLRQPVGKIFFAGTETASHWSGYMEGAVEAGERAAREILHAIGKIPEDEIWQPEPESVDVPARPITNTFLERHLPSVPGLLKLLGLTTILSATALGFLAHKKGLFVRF
Procedure: as §1

MAO-B [3] = biological target: T3, MAO-B (Mus musculus, UniProt Q8BW75); assay: in vivo; assay type: in vivo; conditions: for Ratio MAO-A/MAO-B: 120 min; for ED50: read-out: PE ID50
T3 construct: MAO activities in the mouse brain after; from tissue
T3 sequence (Q8BW75 1-520): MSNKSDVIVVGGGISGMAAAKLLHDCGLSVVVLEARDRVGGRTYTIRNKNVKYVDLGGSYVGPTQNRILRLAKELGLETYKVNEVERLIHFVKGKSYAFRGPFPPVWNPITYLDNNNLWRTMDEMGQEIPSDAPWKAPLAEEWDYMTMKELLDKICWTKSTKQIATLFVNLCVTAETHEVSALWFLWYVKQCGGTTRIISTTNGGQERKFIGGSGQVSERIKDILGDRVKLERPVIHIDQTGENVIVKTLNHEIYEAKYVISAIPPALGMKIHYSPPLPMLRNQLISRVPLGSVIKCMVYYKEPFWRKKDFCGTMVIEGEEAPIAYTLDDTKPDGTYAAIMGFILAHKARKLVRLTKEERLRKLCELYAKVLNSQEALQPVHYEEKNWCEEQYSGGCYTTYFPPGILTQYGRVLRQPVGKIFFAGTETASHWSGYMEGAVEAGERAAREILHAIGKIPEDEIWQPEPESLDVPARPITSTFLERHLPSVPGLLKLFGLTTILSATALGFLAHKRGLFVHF
Procedure: (§2) Albino Swiss mice were used in this study. The animals were injected intraperitoneally with different doses of the aliphatic propargylamines in 100 μL saline.
(§3) 0.5, 1, 2, 5, 10, 20, 50, 100 mg/Kg. Striata were dissected from the brai
(§4) two hours after i.p. administration of the drugs. MAOA and MAOB activitie
(§5) were determined immediately. The values were estimated from doseresponse

MAO-A [4] = biological target: T4, MAO-A (Mus musculus, UniProt Q64133); assay: in vivo; conditions: ip, read-out: 5-HT ID50
T4 construct: MAO activities in the mouse brain after; from tissue
T4 sequence (Q64133 1-526): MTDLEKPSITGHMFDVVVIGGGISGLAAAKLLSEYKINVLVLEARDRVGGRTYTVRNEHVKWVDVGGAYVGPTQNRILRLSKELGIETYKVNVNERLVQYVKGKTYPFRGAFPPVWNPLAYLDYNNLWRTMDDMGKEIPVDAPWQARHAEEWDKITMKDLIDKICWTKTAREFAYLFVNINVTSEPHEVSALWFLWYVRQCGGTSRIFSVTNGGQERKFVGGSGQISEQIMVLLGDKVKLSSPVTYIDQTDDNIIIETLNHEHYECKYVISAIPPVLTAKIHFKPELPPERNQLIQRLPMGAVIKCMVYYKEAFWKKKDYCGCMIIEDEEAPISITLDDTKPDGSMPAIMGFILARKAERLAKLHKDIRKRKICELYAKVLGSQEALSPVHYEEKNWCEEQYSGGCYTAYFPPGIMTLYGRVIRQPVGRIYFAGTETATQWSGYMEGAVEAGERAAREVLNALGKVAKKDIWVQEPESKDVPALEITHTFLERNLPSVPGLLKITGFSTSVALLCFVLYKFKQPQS
Procedure: as §2, §3, §4, §5

MAO-B [5] = biological target: T3, MAO-B; assay: MAO-B activity in the mouse brain after oral administration (substrate PE); assay type: in vivo; conditions: for Relative activity PE: oral 10 mg/Kg, PE (1.9 × 10^-5 M), mean ± standard error, saline = 100; for Relative activity PE / ED50: 2 hours; for ED50: average of 5 animals per dose, estimated from dose response curves, read-out: Inhibition of MAO-B activity, dose response (ID50)
Procedure: (§6) Table 3 indicates the MAO activities in the mouse brain following oral administration of the aliphatic propargylamines.
(§7) of each compound. Striata were dissected from the brain two hours after
(§8) the administration of the drugs. MAOA and MAOB activities were determined
Striata were dissected from the brain two
hours after oral administration of the drugs. MAOB activities were then
determined immediately. The values were estimated from doseresponse

MAO-A [6] = biological target: T4, MAO-A; assay type: in vivo
Procedure: as §6, §7, §8

dopamine neurons = assay: Protection of dopamine neurons against MPTP-induced neurotoxicity in the mice brain; assay type: in vivo, mouse
Excerpt: Three days later, dopamine levels and dopamine uptake site densities (GBR bindings) were estimated.

[7] = mouse, in vivo
Excerpt: The acute toxicity of these compounds is quite low. […]. The aliphatic side-chains of these aliphatic propargyl compounds are similar to those that exist in endogenous lipids and fatty acids and such aliphatic chains are readily oxidized in vivo. […]

monoamine oxidase = assay: Inhibition of rat liver monoamine oxidase deamination of dopamine (DA, mixed-type MAO A and B substrate) in vitro; assay type: biochemical; conditions: substrate DA (5 × 10^-4 M), average of at least 3 independent experiments
Procedure: as §1

Solubility in water = conditions: free base
noradrenaline neurons = assay: Protection of noradrenaline neurons against DSP-4 induced neurotoxicity in the mouse brain; assay type: in vivo; conditions: Experiment II, pretreatment 10 mg/Kg i.p., mean ± S.E.
Procedure: The analyses of DSP-4-induced neurotoxic effects were conducted in accordance with […] and Jonsson (Eur. J. Pharmacol. 103 (1984), 269-278), hereby incorporated by reference. Mice were pretreated with M-2-PP (10 mg/Kg) and 2-HxMP (10 mg/Kg) or saline as control via i.p. administration and one hour later challenged with a single i.p. dose of DSP-4 (DSP-4: […] One week after treatment noradrenaline content in the putamen of these mice was analyzed. The results which are shown in Table 5 are mean ± S.E. of five animals in each group.

[8] = ID50 i.p. in mice versus IC50 in vitro
[9] = mouse, ip, 2 hours after administration, […], estimated from dose response curves
[10] = 2 hours after administration, 5-HT 5 × 10^-4 M, estimated from dose response curves
[11] = oral 10 mg/Kg, 2 hours, 5-HT (5 × 10^-4 M), mean ± standard error, saline = 100

| SMILES | IC50 (MAO-A [1]) | IC50 (MAO-B [2]) | Relative activity PE (MAO-B [5]) | fatality after oral administration [7] | Ratio MAO-A/MAO-B (MAO-B [2]; ratio of IC50 values, in vitro) | MAO-B ID50 (mg/Kg) / IC50 ([…] × 10^-6 M) (MAO-B [3]; [8]) | ED50 (MAO-B [3]; [9]) | Ratio MAO-A/MAO-B (MAO-B [3]; ratio of ID50 values, i.p.) | ED50 (MAO-A [4]; [10]) | ED50 (MAO-B [5]; mouse, oral) | Relative activity 5-HT (MAO-A [6]; [11]) | further results |
| --- | --- | --- | --- | --- | --- | --- | --- | --- | --- | --- | --- | --- |
| C#CCN(C)CCCCC.O=C(O)C(=O)O [Example M-1-PP, N-(1-Pentyl)-N-methylpropargylamine oxalate] | 100 µM | 0.4 µM | 72 ± 17% | no fatality |  |  |  |  |  |  |  | Ratio MAO-A/MAO-B (MAO-B [2]; rat, liver mitochondrial membranes): 200; MAO-B ID50 (mg/Kg) / IC50 ([…] × 10^-6 M) (MAO-B [3]; mouse, in vivo, ip): 6.6; inhibition of brain MAO-B activity in vivo (in words) (MAO-B [3]; mouse, in vivo, ip): more potent than the longer chain analogs at inhibiting brain MAO-B activity; Ratio MAO-A/MAO-B (MAO-B [3]; mouse, in vivo, ip): 50; ED50 (MAO-B [3]; mouse, ip, 2 h): 2 mg/kg; ED50 (MAO-A [4]; 2 h): 100 mg/kg; Relative activity 5-HT (MAO-A [6]; mouse, in vivo, po, 10 mg/kg): 97 ± 13; Dopamine (dopamine neurons; 2.0 mg/Kg + MPTP): 3.1 μg/gm; Dopamine binding site (dopamine neurons; 2.0 mg/Kg + MPTP): 221 pmol/mg; Dopamine (dopamine neurons; 10 mg/Kg + MPTP): 9.0 μg/gm; Dopamine binding site (dopamine neurons; 10 mg/Kg + MPTP): 320 pmol/mg |
| C#CCNC [MP, N-Methylpropargylamine-HCl] |  |  |  |  |  |  |  |  |  |  |  | 5-HT IC50 (MAO-A [1]): inactive; PE IC50 (MAO-B [2]): inactive; DA IC50 (monoamine oxidase): inactive; solubility in water (Solubility in water): infinite |
| C#CCN(C)C(C)CCCC.Cl (stereo not drawn) [Example 2-HxMP, N-(2-Hexyl)-N-methylpropargylamine hydrochloride] | 100 µM | 0.1 µM |  |  | 1000 | 2 (mg/Kg)/(1 × 10^-6 M) | 0.2 mg/kg | 200 | 40 mg/kg | 1 mg/kg |  | Noradrenaline in putamen (noradrenaline neurons; DSP-4 50 mg/Kg, p < 0.01 vs DSP-4 (DSP-4 alone 56)): 84 ± 0.04%; Noradrenaline in putamen (noradrenaline neurons; saline, no DSP-4): 104 ± 0.05% |
| C#CCN(C)CCCC.Cl [Example 1-BuMP, N-(1-Butyl)-N-methylpropargylamine hydrochloride] | 100 µM | 1 µM | 67 ± 9% | no fatality | 100 | 2 (mg/Kg)/(1 × 10^-6 M) | 2 mg/kg | 50 | 100 mg/kg | 15 mg/kg | 98 ± 5% | inhibition of brain MAO-B activity in vivo (in words) (MAO-B [3]; mouse, i.p., two hours after treatment): more potent than the longer chain analogs at inhibiting brain MAO-B activity |
| C#CCN(C)C(C)CC.Cl.O=C(O)C(=O)O (racemic) [Example 2-BuMP, N-(2-Butyl)-N-methylpropargylamine hydrochloride and oxalate] |  |  |  | no fatality |  |  |  |  |  |  |  |  |
| C#CCN(C)C(C)CCCCCCCC.Cl (stereo not drawn) [Example 2-DMP, N-(2-Decyl)-N-methylpropargylamine hydrochloride] | 4 µM | 0.2 µM | 104 ± 7% |  | 50 | 25 (mg/Kg)/(1 × 10^-6 M) | 5 mg/kg | 7 | 35 mg/kg | 50 mg/kg | 97 ± 8% | IC50 (monoamine oxidase): 0.2 µM; effectiveness in blocking MAO-B activity in vivo after acute oral administration (in words) (MAO-B [5]; mouse, oral): less potent at inhibiting MAO-B activity in vivo after acute administration |
